In ChEMBL document CHEMBL1150014, “DISCOVERY OF A NOVEL CLASS OF BK CHANNEL OPENERS: ENANTIOSPECIFIC SYNTHESIS AND BK CHANNEL OPENING ACTIVITY OF 3-(5-CHLORO-2-HYDROXYPHENYL)-1,3-DIHYDRO-3-HYDROXY-6-(TRIFLUOROMETHYL)-2H-INDOL-2-ONE” (Bioorg Med Chem Lett, 1997):

Target: Calcium-activated potassium channel subunit alpha-1 (Homo sapiens) (UniProt Q12791)
Test: Effect on outward K+ current using two-electrode voltage clamp recording from Xenopus laevis oocyte expressing cloned hSlo at 20 uM
Assay type: functional

Chain of Calcium-activated potassium channel subunit alpha-1 (Homo sapiens) (Q12791 whole entry): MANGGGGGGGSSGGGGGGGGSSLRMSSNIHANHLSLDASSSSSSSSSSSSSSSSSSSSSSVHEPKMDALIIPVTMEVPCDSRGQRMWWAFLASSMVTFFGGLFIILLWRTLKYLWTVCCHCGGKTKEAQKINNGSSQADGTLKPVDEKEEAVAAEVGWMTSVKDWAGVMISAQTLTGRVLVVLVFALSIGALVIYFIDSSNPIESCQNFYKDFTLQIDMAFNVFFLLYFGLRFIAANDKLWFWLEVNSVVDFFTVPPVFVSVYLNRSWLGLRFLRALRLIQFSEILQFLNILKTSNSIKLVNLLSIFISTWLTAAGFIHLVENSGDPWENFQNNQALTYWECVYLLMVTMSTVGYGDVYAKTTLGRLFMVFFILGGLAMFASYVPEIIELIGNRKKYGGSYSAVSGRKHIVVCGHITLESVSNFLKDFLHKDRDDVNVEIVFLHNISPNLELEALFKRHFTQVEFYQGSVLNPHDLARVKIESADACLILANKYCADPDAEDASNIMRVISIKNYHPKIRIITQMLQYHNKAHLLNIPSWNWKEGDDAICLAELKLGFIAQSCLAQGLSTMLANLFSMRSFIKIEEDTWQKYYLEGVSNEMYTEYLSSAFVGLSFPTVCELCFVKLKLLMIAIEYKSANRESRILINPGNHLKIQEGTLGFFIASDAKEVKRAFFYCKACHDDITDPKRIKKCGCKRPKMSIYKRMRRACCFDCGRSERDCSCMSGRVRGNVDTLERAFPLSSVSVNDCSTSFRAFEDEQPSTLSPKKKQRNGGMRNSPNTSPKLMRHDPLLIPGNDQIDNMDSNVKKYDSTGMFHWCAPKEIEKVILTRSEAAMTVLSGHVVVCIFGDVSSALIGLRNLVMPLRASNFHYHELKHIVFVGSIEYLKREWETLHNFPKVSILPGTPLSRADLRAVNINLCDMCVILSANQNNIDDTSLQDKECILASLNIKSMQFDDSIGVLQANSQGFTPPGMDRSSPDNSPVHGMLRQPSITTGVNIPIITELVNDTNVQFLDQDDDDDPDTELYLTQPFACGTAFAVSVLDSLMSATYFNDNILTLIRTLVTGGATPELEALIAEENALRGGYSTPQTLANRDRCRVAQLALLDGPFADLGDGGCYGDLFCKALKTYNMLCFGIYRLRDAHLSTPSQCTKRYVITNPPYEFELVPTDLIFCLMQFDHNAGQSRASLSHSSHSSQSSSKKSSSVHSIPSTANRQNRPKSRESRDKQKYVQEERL

| Control | SMILES |
| --- | --- |
| 116% | COc1ccc(Cl)cc1[C@]1(O)C(=O)Nc2cc(C(F)(F)F)ccc21 (stereo in doubt; (-)-4c) |
| 96.7% | O=C1Nc2cc(C(F)(F)F)ccc2C1(O)c1cccc(Cl)c1 (racemic) |
| 117% | COc1ccc(Cl)cc1[C@]1(O)C(=O)Nc2cc(C(F)(F)F)ccc21 (stereo in doubt; (+)-4c) |
| 120% | COc1ccc(Cl)cc1C1(O)C(=O)Nc2cc(C(F)(F)F)ccc21 (racemic) |

Target: Calcium-activated potassium channel subunit alpha-1 (Mus musculus) (UniProt Q08460)
Sequence (Q08460 whole entry): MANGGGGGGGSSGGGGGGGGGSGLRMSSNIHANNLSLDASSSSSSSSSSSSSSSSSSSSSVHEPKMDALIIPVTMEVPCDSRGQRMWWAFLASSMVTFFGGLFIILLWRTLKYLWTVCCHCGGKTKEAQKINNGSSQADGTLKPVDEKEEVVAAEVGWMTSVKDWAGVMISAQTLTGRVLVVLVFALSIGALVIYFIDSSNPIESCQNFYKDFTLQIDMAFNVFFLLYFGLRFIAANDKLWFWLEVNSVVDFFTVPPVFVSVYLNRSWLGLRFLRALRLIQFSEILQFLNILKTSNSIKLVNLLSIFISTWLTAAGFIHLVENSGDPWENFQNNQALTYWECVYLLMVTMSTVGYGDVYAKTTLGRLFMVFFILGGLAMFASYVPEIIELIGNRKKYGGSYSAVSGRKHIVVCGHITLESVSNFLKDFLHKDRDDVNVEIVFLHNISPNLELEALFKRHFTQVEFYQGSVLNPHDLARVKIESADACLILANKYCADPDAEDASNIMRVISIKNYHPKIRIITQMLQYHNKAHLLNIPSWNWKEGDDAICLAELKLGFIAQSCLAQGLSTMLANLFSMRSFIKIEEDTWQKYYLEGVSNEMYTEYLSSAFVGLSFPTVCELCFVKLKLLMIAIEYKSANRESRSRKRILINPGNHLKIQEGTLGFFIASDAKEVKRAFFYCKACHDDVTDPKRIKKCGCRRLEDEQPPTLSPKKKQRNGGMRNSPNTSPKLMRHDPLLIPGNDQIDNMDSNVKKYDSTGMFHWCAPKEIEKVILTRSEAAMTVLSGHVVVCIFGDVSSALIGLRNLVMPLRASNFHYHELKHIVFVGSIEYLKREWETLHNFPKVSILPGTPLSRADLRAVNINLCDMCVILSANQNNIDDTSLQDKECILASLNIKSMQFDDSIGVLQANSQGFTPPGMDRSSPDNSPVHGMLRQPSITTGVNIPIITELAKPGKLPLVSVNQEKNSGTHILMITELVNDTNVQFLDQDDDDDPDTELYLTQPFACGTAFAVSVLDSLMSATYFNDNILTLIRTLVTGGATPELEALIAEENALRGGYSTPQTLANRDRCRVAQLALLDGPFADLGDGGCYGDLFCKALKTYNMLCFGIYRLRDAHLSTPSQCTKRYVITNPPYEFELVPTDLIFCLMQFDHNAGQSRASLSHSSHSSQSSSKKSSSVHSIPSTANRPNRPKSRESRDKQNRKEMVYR
Test: Effect on outward K+ current using two-electrode voltage clamp recording from Xenopus laevis oocyte expressing cloned mSlo at 20 uM
Assay type: functional

| SMILES | Control |
| --- | --- |
| O=C1Nc2ccccc2C1(O)c1cc(Cl)ccc1O (racemic) | 95.3% |
| O=c1[nH]c2cc(C(F)(F)F)ccc2n1-c1cc(Cl)ccc1O | 132% |
| O=C1Nc2cc(C(F)(F)F)ccc2C1(O)c1ccccc1O (racemic) | 90.4% |

Continued, values first:

| Control | SMILES |
| --- | --- |
| 141% | O=C1Nc2cc(C(F)(F)F)ccc2[C@@]1(O)c1cc(Cl)ccc1O (stereo in doubt; (-)-4e) |
| 124% | O=C1Nc2cc(C(F)(F)F)ccc2[C@@]1(O)c1cc(Cl)ccc1O (stereo in doubt; (+)-4e) |
| 131% | O=C1Nc2cc(C(F)(F)F)ccc2C1(O)c1cc(Cl)ccc1O (racemic) |

Target: Calcium-activated potassium channel subunit alpha-1 (Mus musculus) (UniProt Q08460)
Test: Effect on outward K+ current using two-electrode voltage clamp recording from Xenopus laevis oocyte expressing cloned mSlo at 30 uM
Assay type: functional

| Control | SMILES |
| --- | --- |
| 148% | O=c1[nH]c2cc(C(F)(F)F)ccc2n1-c1cc(Cl)ccc1O |
| 201% | O=C1Nc2cc(C(F)(F)F)ccc2C1(O)c1cc(Cl)ccc1O (racemic) |
